Source: patent US6911432B2, “Drugs, foods or drinks with the use of algae-derived physiologically active substances” (priority 1997, dated 2005)

Columns and labels:
HL-60 cells [1] = test: viable cell count with Trypan Blue under a microscope; type: cell-based, human; settings: final concentration 250 μM or 125 μM
Protocol: Agarobiose, agarotetraose, agarohexaose and agarooctaose (hereinafter, sometimes, these oligosuccharaides are referred to as agarooligosaccharides) obtained in Example 5 were dissolved in water at a concentration of 2.5 mM or 1.25 mM separately, and were sterilized by filtration. HL-60 cells were suspended in RPMI 1640 medium containing 10% fetal bovine serum at a concentration of 2.5×10^5 cells/4.5 ml and to this suspension was added 0.5 ml of each of the oligosaccharide solutions. The resultant mixture were incubated with 5% CO2 at 37° C. for 24 hours or 48 hours. A part of the cell culture was taken up, followed by addition of Trypan Blue thereto and observing under a microscope to count the number of viable cells.
That is, FIG. 14 illustrates the relation between the incubation time and the number of viable cells when HL-60 cells were cultured with addition of one of the oligosaccharides at the final concentration of 250 μM. FIG. 15 illustrates the relation between the incubation time and the number of viable cells when HL-60 cells were cultured with addition of one of the oligosaccharides at the final concentration of 125 μM. In FIGS. 14 and 15, the horizontal axes represent the incubation time (hrs.) and the vertical axes represent the number of viable cells (× 10^5/5 ml). The closed circle (●) represents the addition of water (control), the open diamond (⋄) represents the addition of agarobiose, the open circle (◯) represents the addition of agarotetraose, the open triangle (Δ) represents the addition of agarohexaose and the open square (□) represents the addition of agarooctaose.

RAW264.7 = test: antiproliferation assay, MTT method; type: cell-based, mouse
Protocol: (§1) Each fraction was sterilized by filtration and its 10 μl portion was placed in a well of a 96 well microtiter plate. […] The cell morphology was observed under an optical microscope. […] The absorbance at 590 nm was measured to determine a cell proliferation rate. (2) A 50 mM solution of agarobiose, agarotetraose or agarohexaose obtained in Example 3-(1) was sterilized by filtration and diluted 2-, 4-, 8-, 16-, 32-, 64- and 128-folds with sterilized water. […] [table] The number in Table 3 represents the dilution rate of the dilution added to the group whose absorbance at 590 nm was less than one-half of that of the control group to which water was added. […] Then, for agarobiose, agarotetraose and agarohexaose, the concentrations required for 50% proliferation inhibitory rate (IC50) are calculated based on the change in the absorbance at 590 nm, and are shown in Table 4.

MCF7 = test: antiproliferation assay, MTT method; type: cell-based, human
Protocol: as §1

MKN45 = test: antiproliferation assay, MTT method; type: cell-based, human
Protocol: as §1

RPMI1788 = test: antiproliferation assay, MTT method; type: cell-based, human
Protocol: as §1

A549 = test: antiproliferation assay, MTT method; type: cell-based, human
Protocol: as §1

HCT116 = test: antiproliferation assay, MTT method; type: cell-based, human
Protocol: as §1

WiDr = test: antiproliferation assay, MTT method; type: cell-based, human
Protocol: as §1

HepG2 = test: antiproliferation assay, MTT method; type: cell-based, human
Protocol: as §1

HeLa S3 = test: antiproliferation assay, MTT method; type: cell-based, human
Protocol: as §1

T-47D = test: antiproliferation assay, MTT method; type: cell-based, human
Protocol: as §1

T24 = test: antiproliferation assay, MTT method; type: cell-based, human
Protocol: as §1

HT-29 = test: antiproliferation assay, MTT method; type: cell-based, human
Protocol: as §1

A-172 = test: antiproliferation assay, MTT method; type: cell-based
Protocol: as §1

HT-1080 = test: antiproliferation assay, MTT method; type: cell-based
Protocol: as §1

HL-60 cells [2] = test: antiproliferation assay, MTT method, absorbance at 590 nm; type: cell-based, human; settings: HL-60
iNOS = iNOS expression by western blotting and RT-PCR; type: cell-based; settings: protein level by western blotting, messenger RNA level by RT-PCR
Protocol: The confirmation was carried out at protein level by western blotting and at messenger RNA level by RT-PCR. That is, the compounds used in the present invention are useful for treating and preventing diseases that require inhibition of NO production by inhibiting expression of iNOS which is overexpressed by various factors to produce excess NO.

[3] = dilution rate 1 corresponds to 5 mM in medium
[4] = read-out: IC50 (concentration required for 50% proliferation inhibitory rate)

## OC[C@H]1O[C@@H](O[C@H]2[C@H]3OC[C@@H]2O[C@@H](O[C@H]2[C@@H](O)[C@@H](CO)O[C@@H](O[C@H]4[C@H]5OC[C@@H]4O[C@@H](O[C@H]4[C@@H](O)[C@@H](CO)O[C@@H](O[C@H]6[C@H]7OC[C@@H]6OC(O)[C@H]7O)[C@@H]4O)[C@H]5O)[C@@H]2O)[C@H]3O)[C@H](O)[C@@H](O)[C@H]1O (mixture of isomers) [Agarohexaose, agarohexaose]
HL-60 cells [1]
  apoptosis corpuscles: apoptosis corpuscles were observed
HL-60 cells [1]; 24 hours or 48 hours
  number of viable cells as compared with the group to which water was added: decreased
RAW264.7; [3]
  dilution rate of the dilution added to the group whose absorbance at 590 nm was less than one-half of that of the control group: 32
RAW264.7; [4]
  IC50: 109 µM
MCF7; [3]
  dilution rate of the dilution added to the group whose absorbance at 590 nm was less than one-half of that of the control group: 16
MCF7; [4]
  IC50: 238 µM
MKN45; [3]
  dilution rate of the dilution added to the group whose absorbance at 590 nm was less than one-half of that of the control group: 16
MKN45; [4]
  IC50: 166 µM
RPMI1788; [3]
  dilution rate of the dilution added to the group whose absorbance at 590 nm was less than one-half of that of the control group: 128
RPMI1788; [4]
  IC50: 22 µM
A549; [3]
  dilution rate of the dilution added to the group whose absorbance at 590 nm was less than one-half of that of the control group: 16
A549; [4]
  IC50: 279 µM
HCT116; [3]
  dilution rate of the dilution added to the group whose absorbance at 590 nm was less than one-half of that of the control group: 32
HCT116; [4]
  IC50: 136 µM
WiDr; [3]
  dilution rate of the dilution added to the group whose absorbance at 590 nm was less than one-half of that of the control group: 16
WiDr; [4]
  IC50: 334 µM
HepG2; [3]
  dilution rate of the dilution added to the group whose absorbance at 590 nm was less than one-half of that of the control group: 16
HepG2; [4]
  IC50: 430 µM
HeLa S3; [3]
  dilution rate of the dilution added to the group whose absorbance at 590 nm was less than one-half of that of the control group: 16
HeLa S3; [4]
  IC50: 334 µM
T-47D; [3]
  dilution rate of the dilution added to the group whose absorbance at 590 nm was less than one-half of that of the control group: 16
T-47D; [4]
  IC50: 158 µM
T24; [3]
  dilution rate of the dilution added to the group whose absorbance at 590 nm was less than one-half of that of the control group: 8
T24; [4]
  IC50: 365 µM
HT-29; [3]
  dilution rate of the dilution added to the group whose absorbance at 590 nm was less than one-half of that of the control group: 32
HT-29; [4]
  IC50: 144 µM
A-172; [3]
  dilution rate of the dilution added to the group whose absorbance at 590 nm was less than one-half of that of the control group: 16
A-172; [4]
  IC50: 151 µM
HT-1080; [3]
  dilution rate of the dilution added to the group whose absorbance at 590 nm was less than one-half of that of the control group: 16
HT-1080; [4]
  IC50: 185 µM
HL-60 cells [2]; 50 mM solution diluted 2- to 128-fold, dilution rate 1 corresponds to 5 mM in the cell culture medium
  dilution rate of the dilution added to the group whose absorbance at 590 nm was less than one-half of that of the control group: 64
HL-60 cells [2]; [4]
  IC50: 78 µM
iNOS
  inhibition of iNOS expression: inhibit this iNOS expression
